Experimental findings from PubChem BioAssay (NCI) are described below.

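How tested: cells in 96-well plates exposed to compound for 48 hours at five concentrations. Here, GI50 denotes the concentration required for 50% inhibition of growth. TGI: total growth inhibition.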 Peptide text beside a SMILES is read from it. * marks the point of attachment. X26 = Clc1c(Cl)c(Cl)c(O*)c(Cl)c1Cl; Boc = CC(C)(C)OC(=O)*; OBn = c1ccc(CO*)cc1; Bn = c1ccc(C*)cc1 Where only a bound is given, the exact number is not on record here.

Test systems include ACHN renal; SK-MEL-2 melanoma; K-562 leukemia; UACC-62 melanoma; HOP-62 NSCLC; OVCAR-5 ovarian; CCRF-CEM leukemia; SF-539 CNS; OVCAR-4 ovarian; HS 578T breast.
Holding throughout (experiment): growth of human tumour cells (NCI), 48 h

For `CCCO/N=[N+](\[O-])N(CC)CC`, the TGI in the assay with ACHN renal, in the assay on SK-MEL-2 melanoma, in the assay with K-562 leukemia, with UACC-62 melanoma, with HOP-62 NSCLC and with OVCAR-5 ovarian was more than 100 µM in each case. Besides, the TGI with CCRF-CEM leukemia and in the assay with SF-539 CNS was more than 100 µM each time.

For the molecule `O=C(O)C1=NN(c2ccc(S(=O)(=O)O)cc2)C2(C1)C(Cl)C(=O)N2c1nc2ccccc2s1` (stereo unspecified), the TGI was found to be 30.7 µM in the assay with ACHN renal; 35.3 µM with OVCAR-4 ovarian; 32 µM with SK-MEL-2 melanoma; 58.5 µM with K-562 leukemia; 29.5 µM with UACC-62 melanoma; 30.5 µM with HOP-62 NSCLC. Moreover, the TGI in the assay on HS 578T breast was more than 100 µM; in the assay on OVCAR-5 ovarian, 32.8 µM; in the assay with SF-539 CNS, 12.6 µM.

For `N#C/C(=C\c1cccc(Br)c1)c1nc2ccccc2c(=O)[nH]1`, the TGI with ACHN renal was more than 100 µM; with OVCAR-4 ovarian, more than 100 µM; in the assay on SK-MEL-2 melanoma it was more than 100 µM; with K-562 leukemia, more than 100 µM; in the assay on UACC-62 melanoma it was more than 100 µM; with HOP-62 NSCLC it was 62.7 µM. Further, the TGI in the assay with OVCAR-5 ovarian, with CCRF-CEM leukemia and in the assay on SF-539 CNS was more than 100 µM each time.

With `Oc1c(OCc2nnc(CCCCCCCCc3nnc(COc4ccc5ccccc5c4O)o3)o2)ccc2ccccc12`, the TGI in the assay with ACHN renal, in the assay on OVCAR-4 ovarian, in the assay on SK-MEL-2 melanoma, in the assay on K-562 leukemia, with UACC-62 melanoma and with OVCAR-5 ovarian was more than 100 µM in each case.

For the molecule `CC(C)CC(NC(=O)C(CCC(=O)OCc1ccccc1)NC(=O)OC(C)(C)C)C(=O)NC(COCc1ccccc1)C(=O)NC(Cc1ccccc1)C(=O)Oc1c(Cl)c(Cl)c(Cl)c(Cl)c1Cl` (stereo unspecified) (Boc-E(OBn)LS(Bn)F-X26; configuration not given here), the TGI in the assay on ACHN renal is 57.8 µM; in the assay with OVCAR-4 ovarian, more than 100 µM; with SK-MEL-2 melanoma it was 69 µM; in the assay on UACC-62 melanoma it was 44.4 µM; in the assay on HS 578T breast it was 65.9 µM; with OVCAR-5 ovarian, 56.7 µM. The molecule also returned a TGI with CCRF-CEM leukemia of 74.7 µM.

As for `O=c1oc2ccccc2c(O)c1C=NC(=S)c1ccncc1`, the TGI with ACHN renal, in the assay with OVCAR-4 ovarian, in the assay on SK-MEL-2 melanoma, in the assay with UACC-62 melanoma, with HOP-62 NSCLC and in the assay on OVCAR-5 ovarian was more than 100 µM each time. For the same molecule, the TGI in the assay on SF-539 CNS was more than 100 µM.

On to `CN(C)CCCNc1cc(O)c2c(c1O)C(=O)c1ccccc1C2=O`, for which the TGI in the assay with ACHN renal is 27.5 µM; with OVCAR-4 ovarian, 25.4 µM; with SK-MEL-2 melanoma, 35.7 µM; in the assay on K-562 leukemia, 21.6 µM; with UACC-62 melanoma, 35.3 µM; in the assay with HOP-62 NSCLC, 23.3 µM. For the same molecule, the TGI is 50.2 µM in the assay on HS 578T breast, 33.7 µM in the assay on OVCAR-5 ovarian and 26.7 µM in the assay on SF-539 CNS.

For the molecule `COC(=O)C1=C(C)NC(C)=C(C(=O)OC)C1c1cccc(N=O)c1`, the TGI was 27.6 µM in the assay on ACHN renal; 26.2 µM in the assay on OVCAR-4 ovarian; 30.9 µM with SK-MEL-2 melanoma; more than 100 µM in the assay on K-562 leukemia; 27.6 µM in the assay with UACC-62 melanoma; 56.2 µM in the assay with HOP-62 NSCLC. Also, the TGI with OVCAR-5 ovarian is 32.3 µM; with CCRF-CEM leukemia, more than 100 µM; with SF-539 CNS it was 33.5 µM.

As for `S=c1[nH]nc(Cn2c3ccc(Br)cc3c3nc4ccccc4nc32)n1C1CCCCC1`, the TGI is 98.9 µM in the assay on ACHN renal; more than 100 µM in the assay with OVCAR-4 ovarian; 54.6 µM with SK-MEL-2 melanoma; more than 100 µM in the assay with K-562 leukemia; 41.1 µM in the assay on UACC-62 melanoma; more than 63.5 µM in the assay with HOP-62 NSCLC. The figures for the TGI in the assay with OVCAR-5 ovarian, in the assay on CCRF-CEM leukemia and with SF-539 CNS were more than 100 µM, 84.1 µM and 42.1 µM, respectively.

On to `O=C(CC(C(=O)c1cccs1)c1ccc2c(c1)OCO2)c1ccc(Br)cc1` (stereo unspecified), for which the TGI in the assay on ACHN renal, with OVCAR-4 ovarian, in the assay with K-562 leukemia, with UACC-62 melanoma, in the assay with HOP-62 NSCLC and in the assay on CCRF-CEM leukemia was more than 100 µM each time.

As for `C[C@H](c1ccccc1)N1C(=O)[C@@H](OCc2ccccc2)[C@H]1[C@H](COC(=O)COCc1ccccc1)OCc1ccccc1`, the TGI in the assay on ACHN renal, in the assay on SK-MEL-2 melanoma, in the assay with K-562 leukemia, with UACC-62 melanoma, with HOP-62 NSCLC and in the assay on HS 578T breast was more than 100 µM throughout. The TGI in the assay with OVCAR-5 ovarian and in the assay on CCRF-CEM leukemia was more than 100 µM in each case.

Turning to `O=C1/C(=C/c2ccc(Cl)cc2)CCCc2ccc(F)cc21`, the GI50 in the assay on ACHN renal is 27.8 µM; with OVCAR-4 ovarian it was 17.5 µM; in the assay on K-562 leukemia it was 11.1 µM; in the assay with UACC-62 melanoma, 16.1 µM; with HS 578T breast it was 29.2 µM; in the assay with OVCAR-5 ovarian, 32.4 µM. Besides, in the assay on CCRF-CEM leukemia, the GI50 was 11.5 µM. In addition, the TGI was 68.5 µM in the assay with ACHN renal; 51.2 µM in the assay with OVCAR-4 ovarian; more than 100 µM in the assay on K-562 leukemia; 47 µM in the assay on UACC-62 melanoma; 62 µM in the assay on HS 578T breast; more than 100 µM in the assay with OVCAR-5 ovarian. The TGI in the assay with CCRF-CEM leukemia came out at 61 µM.

For `Nc1c(S(N)(=O)=O)cc(S(N)(=O)=O)cc1S(N)(=O)=O`, the TGI with ACHN renal, in the assay with OVCAR-4 ovarian, with K-562 leukemia, in the assay on UACC-62 melanoma, in the assay with HOP-62 NSCLC and with HS 578T breast was more than 100 µM each time. Further, the TGI with OVCAR-5 ovarian is more than 100 µM.

As for `O=P1(C(O)/C=C/c2ccccc2)N(Cc2ccccc2)[C@@H]2CCCC[C@H]2N1Cc1ccccc1` (stereo partly specified), the TGI was determined as 37.1 µM in the assay on ACHN renal; 26.5 µM in the assay on OVCAR-4 ovarian; 6.17 µM in the assay on SK-MEL-2 melanoma; 16.4 µM with K-562 leukemia; 21.2 µM in the assay with UACC-62 melanoma; 34.6 µM in the assay on HOP-62 NSCLC. Also, the results for the TGI with HS 578T breast, with OVCAR-5 ovarian and in the assay with CCRF-CEM leukemia were 10.6 µM, 31.5 µM and more than 100 µM, respectively.

For the molecule `COc1ccc(OC)c(NC(=O)C(=O)C(C(=O)c2ccccc2F)C2OC(=O)c3ccccc32)c1` (stereo unspecified), the TGI with ACHN renal, in the assay on OVCAR-4 ovarian, in the assay on SK-MEL-2 melanoma, with K-562 leukemia, in the assay with UACC-62 melanoma and in the assay on HOP-62 NSCLC was more than 100 µM each time. The TGI was more than 100 µM in the assay on OVCAR-5 ovarian, 91.1 µM in the assay with CCRF-CEM leukemia and 82.2 µM in the assay on SF-539 CNS.
